Results: patent US12263139B2, “Use of cannabidiol in the treatment of tuberous sclerosis complex” (Jazz Pharmaceuticals Research UK Limited, priority 2017, dated 2025)

Assays:
[1] = tested on: Tsc2−/− Mouse Embryonic Fibroblast (MEF) cell lines; test: Wound healing assay in Tsc2−/− MEFs; format: cell-based; settings: CBD at 10 and 20 μM; FIG. 1 (A)
Protocol: (§1) (ii) Tsc2−/− p53−/− and Tsc2+/+p53−/− mouse embryonic fibroblast (MEF) cell lines (now referred to as Tsc2−/− and Tsc2+/+, respectively).
(§2) Tsc2−/− and Tsc2+/+ cell lines were cultured and maintained in DMEM supplemented with 10% (v/v) FBS and 1% (v/v) penicillin-streptomycin in a humidified incubator (5% CO2 at 37° C.). The AML −/− cell lines were cultured and maintained in DMEM supplemented with 15% (v/v) FBS and 1% (v/v) penicillin-streptomycin in a humidified incubator (5% CO2 at 37° C.). For hypoxia, cells were put into a Binder CB150 hypoxic chamber set at 1% 02 for the indicated time points
(§3) The stock concentration of CBD was made to 20 mM in dimethyl sulfoxide (DMSO). […] The final concentration of the DMSO in the cell culture medium was at a maximum level of 0.05% (v/v).
Cells were seeded in 60 mm plates and left to reach 100% confluency. Cells were then synchronised in 1% (v/v) FBS DMEM for 24 h and “wounded” with a pipette tip. Dead cells were removed with PBS wash and then subsequently replaced with DMEM (10% (v/v) FBS). Cells were pre-treated for 30 min with either rapamycin, c-MET or STAT3 inhibitors (where indicated) before cytokine stimulation. Pictures were taken before treatment and 12-18 h after treatment using an inverted AMG EVOS microscope equipped with an Olympus camera.

AML 621-101 cells = test: Wound healing assay in AML cells; format: cell-based
Protocol: (i) Angiomyolipomas (AML) cells derived from a Tuberous Sclerosis Complex patient (621-101 cell-line), with a known loss of function of TSC2. […] Zeocin™ was purchased from LifeTechnologies (cat no: R25001) and was used to originally generate the stable cell line (by Prof. Lisa Henske) over two weeks of Zeocin™ selection and then for continued maintenance of the cells in tissue culture (at 100 μg/ml).
as §2, §3
Cells were seeded in 60 mm plates and left to reach 100% confluency. Cells were then synchronised in 1% (v/v) FBS DMEM for 24 h and “wounded” with a pipette tip. Dead cells were removed with PBS wash and then subsequently replaced with DMEM (10% (v/v) FBS). […]

Tsc2−/− MEFs [2] = test: Transwell cell migration assay in Tsc2−/− MEFs; format: cell-based, mouse; settings: Tsc2+/+ as control cell; reduction not significant; FIG. 2 (A)
Protocol: as §1, §2
(§4) The stock concentration of CBD was made to 20 mM in dimethyl sulfoxide (DMSO). CBD was added to culture media to final concentrations of either 5 μM or 10 μM, as indicated). The final concentration of the DMSO in the cell culture medium was at a maximum level of 0.05% (v/v).
(§5) Transwell permeable supports with 6.5 mm diameter inserts, 8.0 μm pore size, and a polycarbonate membrane were used to perform migration assays. Cells were grown in a 75-cm2 flask with standard medium (10% (v/v) FBS) until confluent. […] Cells were counted using a haemocytometer. […] The percentage of adherent cells was then determined by fixing the cells with methanol and acetone (1:1) for 20 minutes at 20° C. […] Crystal Violet stained cells were eluted with 1% (w/v) SDS and the absorbance was read at 550 nm on a Genova MK3 Lifescience.

Tsc2−/− MEFs [3] = test: Matrigel cell invasion assay in Tsc2−/− MEFs; format: cell-based, mouse
Protocol: as §1, §2, §4
as §5, with “Lifescience. […]” for “Lifescience.”

Tsc2−/− MEFs [4] = test: Tumour spheroid growth (soft agar) assay in Tsc2−/− MEFs; format: cell-based, mouse; settings: 10 μM CBD
Protocol: as §1, §4
Two-layered soft agar assays were carried out in 6-well plates. All cell lines were plated in complete DMEM media in 0.35% (v/v) agar at (3*10^5) over a 0.6% (v/v) agar layer. The agar was then overlaid with complete DMEM media and spheroids were grown for 14 days at 37° C. in 5% CO2. Media were changed twice a week and new drug was added to media. Pictures were taken using an inverted AMG EVOS microscope equipped with an Olympus camera. Volume of tumour spheroids was measured using ImageJ software.

[5] = TSC patients having focal onset seizures; cited from earlier work

In the case of `C=C(C)[C@@H]1CCC(C)=C[C@H]1c1c(O)cc(CCCCC)cc1O` [CBD, Cannabidiol], the “block of wound closure” value [1] is reported as “as effective as rapamycin”, the “reduction of wound closure” value (AML 621-101 cells; 20 μM CBD) is reported as 60% and the “reduction of wound closure” value (AML 621-101 cells; 5, 10 and 20 μM CBD, FIG. 1 (B)) is reported as “effective at reducing wound closure”. The cell migration (Tsc2−/− MEFs [2]) was “reduce cell migration to control level”, the cell invasion (Tsc2−/− MEFs [3]; 5 μM CBD) was “restoring invasion to the level of the Tsc2+/+ control cells” and the cell invasion (Tsc2−/− MEFs [3]; 10 μM CBD) was “more robust effect”. For the same molecule, the “inhibition of tumour spheroid diameter” value (Tsc2−/− MEFs [4]) was “Significance to inhibit tumour spheroid diameter was observed” and the “treatment of refractory epilepsy” value [5] was “beneficial”.
